This is an account of results in US20220249576A1 (priority 2021, published 2022).

Experiment [1] has as its system Aspergillus endosomal development. To be noted: previously observed; cited from earlier work.
In experiment [2] the test system is A. flavus. The class given is cell-based, Aspergillus flavus.

As to `C[C@@H]1C/C=C/C=C/C=C/C=C/[C@H](O[C@@H]2O[C@H](C)[C@@H](O)[C@H](N)[C@@H]2O)C[C@@H]2O[C@](O)(C[C@@H](O)C[C@H]3O[C@@H]3/C=C/C(=O)O1)C[C@H](O)[C@H]2C(=O)O` [natamycin], the “minimal inhibitory concentration (MIC) for disruption of Aspergillus endosomal development” value in experiment [1] is 6 µM. In experiment [2], the “aflatoxin levels compared to the filipin treated samples” value is “significantly greater increase” and the “aflatoxin production compared to untreated control (A. flavus + the exemplary composition)” value is listed as “increase aflatoxin production”.
On to `CCCCC[C@@H](O)[C@H]1C(=O)O[C@H](C)[C@@H](O)/C=C/C=C/C=C/C=C/C=C(\C)[C@@H](O)C[C@H](O)C[C@H](O)C[C@H](O)C[C@H](O)C[C@H](O)C[C@@H]1O` [filipin], for which the “minimal inhibitory concentration (MIC) for disruption of Aspergillus endosomal development” value in experiment [1] was 3 µM.
